How the values were obtained:
MDA-MB-231/ATCC = assay: NCI one-dose screening, breast cancer MDA-MB-231/ATCC; type: cell-based, human; settings: 10 μM
UACC-62 = assay: NCI one-dose screening, melanoma UACC-62; type: cell-based, human; settings: 10 μM
K562cell line = assay: NCI one-dose screening, leukemia K562; type: cell-based, human; settings: 10 μM
KM12 = assay: NCI one-dose screening, colon cancer KM12; type: cell-based, human; settings: 10 μM
ACHN = assay: NCI one-dose screening, renal cancer ACHN; type: cell-based, human; settings: 10 μM
HT29 = assay: NCI one-dose screening, colon cancer HT29; type: cell-based, human; settings: 10 μM
MDA-MB-468 = assay: NCI one-dose screening, breast cancer MDA-MB-468; type: cell-based, human; settings: 10 μM
NCl/ADR-RES = assay: NCI one-dose screening, breast cancer NCl/ADR-RES; type: cell-based, human; settings: 10 μM; listed under Ovarian cancer
SK-MEL-2 = assay: NCI one-dose screening, melanoma SK-MEL-2; type: cell-based, human; settings: 10 μM
PC-3 = assay: NCI one-dose screening, prostate cancer PC-3; type: cell-based, human; settings: 10 μM
TK-10 = assay: NCI one-dose screening, renal cancer TK-10; type: cell-based, human; settings: 10 μM
SN12C = assay: NCI one-dose screening, renal cancer SN12C; type: cell-based, human; settings: 10 μM
SF-295 = assay: NCI one-dose screening, CNS cancer SF-295; type: cell-based, human; settings: 10 μM
RXF, 393 = assay: NCI one-dose screening, renal cancer RXF, 393; type: cell-based, human; settings: 10 μM
MCF7 = assay: NCI one-dose screening, breast cancer MCF7; type: cell-based, human; settings: 10 μM
SR = assay: NCI one-dose screening, leukemia SR; type: cell-based, human; settings: 10 μM
HL-60, TB = assay: NCI one-dose screening, leukemia HL-60, TB; type: cell-based, human; settings: 10 μM
NCI-H226 = assay: NCI one-dose screening, non-small cell lung cancer NCI-H226; type: cell-based, human; settings: 10 μM
SF-268 = assay: NCI one-dose screening, CNS cancer SF-268; type: cell-based, human; settings: 10 μM
T-47D = assay: NCI one-dose screening, breast cancer T-47D; type: cell-based, human; settings: 10 μM
OVCAR-3 = assay: NCI one-dose screening, ovarian cancer OVCAR-3; type: cell-based, human; settings: 10 μM
NCI-H23 = assay: NCI one-dose screening, non-small cell lung cancer NCI-H23; type: cell-based, human; settings: 10 μM
HCT-15 = assay: NCI one-dose screening, colon cancer HCT-15; type: cell-based, human; settings: 10 μM
MALME-3M = assay: NCI one-dose screening, melanoma MALME-3M; type: cell-based, human; settings: 10 μM
SNB-19 = assay: NCI one-dose screening, CNS cancer SNB-19; type: cell-based, human; settings: 10 μM
NCI-H322M = assay: NCI one-dose screening, non-small cell lung cancer NCI-H322M; type: cell-based, human; settings: 10 μM; Non-small cell lung cancer
786-O = assay: NCI one-dose screening, renal cancer 786-O; type: cell-based, human; settings: 10 μM
COLO 205 = assay: NCI one-dose screening, colon cancer COLO 205; type: cell-based, human; settings: 10 μM
OVCAR-5 = assay: NCI one-dose screening, ovarian cancer OVCAR-5; type: cell-based, human; settings: 10 μM
BT-549 = assay: NCI one-dose screening, breast cancer BT-549; type: cell-based, human; settings: 10 μM
NCI-H460 = assay: NCI one-dose screening, non-small cell lung cancer NCI-H460; type: cell-based, human; settings: 10 μM
UO-31 = assay: NCI one-dose screening, renal cancer UO-31; type: cell-based, human; settings: 10 μM
A549/ATCC = assay: NCI one-dose screening, non-small cell lung cancer A549/ATCC; type: cell-based, human; settings: 10 μM
SK-MEL-28 = assay: NCI one-dose screening, melanoma SK-MEL-28; type: cell-based, human; settings: 10 μM
MOLT-4 = assay: NCI one-dose screening, leukemia MOLT-4; type: cell-based, human; settings: 10 μM
U251 = assay: NCI one-dose screening, CNS cancer U251; type: cell-based, human; settings: 10 μM
[1] = tested on: PC-3 prostate cancer cell line; assay: SRB assay cell viability, PC-3 prostate cancer cell line; type: cell-based, human; settings: Homo sapiens, PC-3 prostate cancer cell line, Table II prints no unit, μM printed, read-out: SRB assay: 50% inhibition of cancer cell proliferation of sample concentration (IC50) of PC-3 prostate cancer cell line
OVCAR-4 = assay: NCI one-dose screening, ovarian cancer OVCAR-4; type: cell-based, human; settings: 10 μM
SF-539 = assay: NCI one-dose screening, CNS cancer SF-539; type: cell-based, human; settings: 10 μM
LOX IMVI = assay: NCI one-dose screening, melanoma LOX IMVI; type: cell-based, human; settings: 10 μM
PRMI-8226 cell line = assay: NCI one-dose screening, leukemia PRMI-8226; type: cell-based, human; settings: 10 μM
HCC-2998 = assay: NCI one-dose screening, colon cancer HCC-2998; type: cell-based, human; settings: 10 μM
human tumor cell lines = assay: NCI one-dose screening, Mean / Delta / Range of growth percent over all tested cell lines; type: cell-based; settings: 10 μM
HCT-116 = assay: NCI one-dose screening, colon cancer HCT-116; type: cell-based, human; settings: 10 μM
HS 578-T = assay: NCI one-dose screening, breast cancer HS 578-T; type: cell-based, human; settings: 10 μM; Breast cancer
CAKI-1 = assay: NCI one-dose screening, renal cancer CAKI-1; type: cell-based, human; settings: 10 μM
IGROV1 = assay: NCI one-dose screening, ovarian cancer IGROV1; type: cell-based, human; settings: 10 μM
NCI-H522 = assay: NCI one-dose screening, non-small cell lung cancer NCI-H522; type: cell-based, human; settings: 10 μM
UACC-257 = assay: NCI one-dose screening, melanoma UACC-257; type: cell-based, human; settings: 10 μM
MDA, -MB-435 = assay: NCI one-dose screening, breast cancer MDA, -MB-435; type: cell-based, human; settings: 10 μM; listed under Melanoma
M14 = assay: NCI one-dose screening, melanoma M14; type: cell-based, human; settings: 10 μM
EKVX = assay: NCI one-dose screening, non-small cell lung cancer EKVX; type: cell-based, human; settings: 10 μM
CCRF-CEM = assay: NCI screening platform one-dose single concentration screening, leukemia CCRF-CEM; type: cell-based, human; settings: 10 μM
DU145 = assay: NCI one-dose screening, prostate cancer DU145; type: cell-based, human; settings: 10 μM
SNB-75 = assay: NCI one-dose screening, CNS cancer SNB-75; type: cell-based, human; settings: 10 μM
SK-MEL-5 = assay: NCI one-dose screening, melanoma SK-MEL-5; type: cell-based, human; settings: 10 μM
HOP-62 = assay: NCI one-dose screening, non-small cell lung cancer HOP-62; type: cell-based, human; settings: 10 μM
OVCAR-8 = assay: NCI one-dose screening, ovarian cancer OVCAR-8; type: cell-based, human; settings: 10 μM

O=C1c2ccccc2C(=O)c2c1cc(N1CCSCC1)c1nsnc21 [C15, 4-(thiomorpholino)anthra[2,1-c][1,2,5] thiadiazol-6,11-dione]
Growth Percent MDA-MB-231/ATCC (MDA-MB-231/ATCC): 45.69% | Growth Percent UACC-62 (UACC-62): 83.96% | Growth Percent K562 (K562cell line): 59.58% | Growth Percent KM12 (KM12): 83.12% | Growth Percent ACHN (ACHN): 83.52% | Growth Percent HT29 (HT29): 86.91% | Growth Percent MDA-MB-468 (MDA-MB-468): 12.59% | Growth Percent NCI/ADR-RES (NCl/ADR-RES): 54.16% | Growth Percent SK-MEL-2 (SK-MEL-2): 43.98% | Growth Percent PC-3 (PC-3): 56.99% | Growth Percent TK-10 (TK-10): 106.46% | Growth Percent SN12C (SN12C): 76.76% | Growth Percent SF-295 (SF-295): 94.85% | Growth Percent RXF 393 (RXF, 393): 85.93% | Growth Percent MCF7 (MCF7): 49.73% | Growth Percent SR (SR): 55.02% | Growth Percent HL-60(TB) (HL-60, TB): 51.57% | Growth Percent NCI-H226 (NCI-H226): 78.10% | Growth Percent SF-268 (SF-268): 95.90% | Growth Percent T-47D (T-47D): 56.78% | Growth Percent OVCAR-3 (OVCAR-3): 41.52% | Growth Percent NCI-H23 (NCI-H23): 33.45% | melting point: 219 to 220 °C | Growth Percent HCT-15 (HCT-15): 61.93% | Growth Percent MALME-3M (MALME-3M): 48.56% | Growth Percent SNB-19 (SNB-19): 100.15% | Growth Percent NCI-H322M (NCI-H322M): 91.69% | Growth Percent 786-0 (786-O): 120.26% | Growth Percent COLO 205 (COLO 205): 107.31% | Growth Percent OVCAR-5 (OVCAR-5): 112.62% | Growth Percent BT-549 (BT-549): 104.74% | Growth Percent NCI-H460 (NCI-H460): 87.46% | Growth Percent UO-31 (UO-31): 61.00% | Growth Percent A549/ATCC (A549/ATCC): 62.74% | Growth Percent SK-MEL-28 (SK-MEL-28): 90.60% | Growth Percent MOLT-4 (MOLT-4): 42.86% | Growth Percent U251 (U251): 40.24% | IC50 [1]: > 15 µM | Growth Percent OVCAR-4 (OVCAR-4): 0.28% | Growth Percent SF-539 (SF-539): 90.64% | Growth Percent LOX IMVI (LOX IMVI): 30.16% | Growth Percent RPMI-8226 (PRMI-8226 cell line): 56.96% | Growth Percent HCC-2998 (HCC-2998): 107.83% | Growth Percent Delta (human tumor cell lines; delta over all cell lines): 70.03% | Growth Percent Mean (human tumor cell lines; mean over all cell lines): 70.31% | Growth Percent Range (human tumor cell lines; range over all cell lines): 119.98% | Growth Percent HCT-116 (HCT-116): 88.21% | Growth Percent HS 578T (HS 578-T): 84.36% | Growth Percent CAKI-1 (CAKI-1): 76.06% | Growth Percent IGROV1 (IGROV1): 75.28% | Growth Percent NCI-H522 (NCI-H522): 38.70% | Growth Percent UACC-257 (UACC-257): 35.78% | Growth Percent MDA-MB-435 (MDA, -MB-435): 77.03% | Growth Percent M14 (M14): 117.70% | Growth Percent EKVX (EKVX): 86.63% | Growth Percent CCRF-CEM (CCRF-CEM): 43.60% | Growth Percent DU145 (DU145): 79.83% | Growth Percent SNB-75 (SNB-75): 105.73% | Growth Percent SK-MEL-5 (SK-MEL-5): 22.81% | Growth Percent HOP-62 (HOP-62): 76.66% | Growth Percent OVCAR-8 (OVCAR-8): 41.72%

From patent US8877748B2, “Heterocyclic fused anthraquinone derivatives, manufacturing method and pharmaceutical composition using thereof” (National Defense Medical Center, priority 2012, dated 2014)
